Test results as given in the supplement of paper PMC5908809.

Assays:
[1] = system: normal NK cells expanded with K562-aAPC; assay: percent inhibition of viability; higher = more inhibition; settings: 72 h, IL-2 2.5 ng/mL
Description: (§1)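 Drug sensitivity and resistance testing on K562-aAPC-expanded normal NK cells: 5 concentrations (10-fold steps over a 10,000-fold range), 72 h at 37 °C, viability by CellTiter-Glo normalised to DMSO and benzethonium chloride controls; DSS from the fitted curve.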

[2] = system: DERL-7 (IL-2 2.5 ng/mL); assay: as above; settings: 72 h
[3] = system: IMC-1 (IL-2 20 ng/mL); assay: as above; settings: 72 h
[4] = system: KAI3 (IL-2 2.5 ng/mL); assay: as above; settings: 72 h
[5] = system: KHYG-1 (IL-2 2.5 ng/mL); assay: as above; settings: 72 h
[6] = system: NK-92 (IL-2 2.5 ng/mL); assay: as above; settings: 72 h
[7] = system: NK-YS (IL-2 2.5 ng/mL); assay: as above; settings: 72 h
[8] = system: NKL (IL-2 2.5 ng/mL); assay: as above; settings: 72 h
[9] = system: SNK-6 (IL-2 2.5 ng/mL); assay: as above; settings: 72 h
[10] = system: YT (IL-2 2.5 ng/mL); assay: as above; settings: 72 h
[11] = system: normal primary NK cells, pool 1 (3 donors) (IL-2 2.5 ng/mL); assay: as above; settings: 72 h
[12] = system: normal primary NK cells, pool 1 (3 donors), resting (IL-2 0 ng/mL); assay: as above; settings: 72 h
[13] = system: normal primary NK cells, pool 2 (3 donors) (IL-2 2.5 ng/mL); assay: as above; settings: 72 h
[14] = system: normal primary NK cells, pool 3 (3 donors) (IL-2 2.5 ng/mL); assay: as above; settings: 72 h
[15] = system: normal NK cells expanded with K562-aAPC; assay: drug sensitivity score (DSS) (DSS units); higher = more sensitive; extreme values may be limits of the assay; settings: 72 h; IL-2 2.5 ng/mL
Description: as §1

[16] = system: DERL-7 (IL-2 2.5 ng/mL); assay: as above; settings: 72 h
[17] = system: IMC-1 (IL-2 20 ng/mL); assay: as above; settings: 72 h
[18] = system: KAI3 (IL-2 2.5 ng/mL); assay: as above; settings: 72 h
[19] = system: KHYG-1 (IL-2 2.5 ng/mL); assay: as above; settings: 72 h
[20] = system: NK-92 (IL-2 2.5 ng/mL); assay: as above; settings: 72 h
[21] = system: NK-YS (IL-2 2.5 ng/mL); assay: as above; settings: 72 h
[22] = system: NKL (IL-2 2.5 ng/mL); assay: as above; settings: 72 h
[23] = system: SNK-6 (IL-2 2.5 ng/mL); assay: as above; settings: 72 h
[24] = system: YT (IL-2 2.5 ng/mL); assay: as above; settings: 72 h
[25] = system: normal primary NK cells, pool 1 (3 donors) (IL-2 2.5 ng/mL); assay: as above; settings: 72 h
[26] = system: normal primary NK cells, pool 1 (3 donors), resting (IL-2 0 ng/mL); assay: as above; settings: 72 h
[27] = system: normal primary NK cells, pool 2 (3 donors) (IL-2 2.5 ng/mL); assay: as above; settings: 72 h
[28] = system: normal primary NK cells, pool 3 (3 donors) (IL-2 2.5 ng/mL); assay: as above; settings: 72 h

CNC(=O)c1cccc(-c2ccc3c(N4CCOC[C@@H]4C)nc(N4CCOC[C@@H]4C)nc3n2)c1 [AZD2014] (max concentration tested 10000 nM)
percent inhibition of viability [%]
Settings	1 nM	10 nM	100 nM	1000 nM	10000 nM
[1]	1.08	8.53	26.5	39.1	53.6
[2]	-2.59	6.55	37.5	74.8	87.2
[3]	-8.07	-10.1	-19.9	-44.5	8.41
[4]	19.5	24.3	46.2	65.3	73.2
[5]	8.26	7.2	12.9	48.3	87.9
[6]	4.44	-1.39	29.1	57.6	86.6
[7]	7.61	7.66	23	61.5	81.5
[8]	8.6	17.6	50.9	66.7	73
[9]	5.51	16.6	22.9	45	60.5
[10]	10.9	6.65	18.3	60.6	78.2
[11]	5.65	6.16	19.9	34.6	35.5
[12]	-7.02	8.25	24.4	20.1	45.9
[13]	-6.11	7.01	7.49	28.2	29.1
[14]	0.74	5.96	9.04	27.7	27.3

Settings	drug sensitivity score
[15]	10.8
[16]	18.6
[17]	0
[18]	21
[19]	11.2
[20]	14.5
[21]	14.4
[22]	20.4
[23]	12.5
[24]	13.5
[25]	8.12
[26]	9.03
[27]	5.3
[28]	5.08

O=P1(N(CCCl)CCCl)NCCCO1 (stereo not given) [Cyclophosphamide] (max concentration tested 40000 nM)
percent inhibition of viability [%]
Settings	4 nM	40 nM	400 nM	4000 nM	40000 nM
[1]	1.23	-1.48	-6.12	-0.37	32.1
[2]	-4.46	-3.5	-1.09	-0.28	5.07
[3]	-3.57	-3.7	-1.67	-7.03	-3.85
[4]	-3.45	3.79	4.87	17.2	40.9
[5]	-3.97	-6.87	-6.42	-6.18	-3.6
[6]	-18.2	-9.83	-4.39	-1.7	10.6
[7]	-5.26	-6.65	-2.31	-4.3	5.51
[8]	-11.1	-8.19	-4.09	-3.02	8.99
[9]	7.84	-6.82	9.06	-4.15	10.8
[10]	-4.55	-6.6	-7.59	-8.95	-8.31
[11]	-10.4	-10.4	-10.4	1.26	30.9
[12]	-3.08	-15.2	-6.52	18.4	64.8
[13]	-11	-0.5	-0.82	2.11	21.8
[14]	-7.23	-5.67	-9.18	0.96	16.7

Settings	drug sensitivity score
[15]	1.42
[16]	0
[17]	0
[18]	3.77
[19]	0
[20]	0
[21]	0
[22]	0
[23]	0
[24]	0
[25]	1.52
[26]	6.32
[27]	1.01
[28]	0.44

Oc1ncnc2[nH]ncc12 [Allopurinol] (max concentration tested 10000 nM)
percent inhibition of viability [%]
Settings	1 nM	10 nM	100 nM	1000 nM	10000 nM
[1]	-3.35	-7.15	-3.73	3.65	10.3
[2]	2.01	4.75	3.34	1.14	-11.8
[3]	0.44	0.22	0.39	1.15	17.8
[4]	17.2	10.9	9.45	11.5	25.8
[5]	-9.33	-11.3	-5.44	-3.66	4.19
[6]	6.41	11.2	3.55	20.5	30.9
[7]	2.79	-1.6	-0.2	4.55	19.6
[8]	1.32	3.75	2.9	25.9	26
[9]	11.9	-22.5	-2.24	-13.2	5.06
[10]	-7.85	-8.54	-5.69	-2.75	18
[11]	-1.72	15.7	6.17	6.91	4.11
[12]	22.9	25.1	18.7	23.7	20.5
[13]	4.21	8.86	8.54	1.11	5.24
[14]	-2.7	8.19	6.53	0	8.15

Settings	drug sensitivity score
[15]	0.01
[16]	0
[17]	0.55
[18]	0
[19]	0
[20]	3.57
[21]	1.14
[22]	4.59
[23]	0
[24]	0.33
[25]	0
[26]	0
[27]	0
[28]	0

COc1cccc2cc(-c3nc([C@H]4CC[C@H](C(=O)O)CC4)n4ncnc(N)c34)[nH]c12 [OSI-027] (max concentration tested 10000 nM)
percent inhibition of viability [%]
Settings	1 nM	10 nM	100 nM	1000 nM	10000 nM
[1]	-6.22	-5.68	3.76	21.5	48.2
[2]	7.51	-0.27	4.62	33.3	81.3
[3]	-0.57	-5.79	-6.31	-24.6	15.6
[4]	-2.08	0.41	9.85	34.9	65.5
[5]	-1.84	-0.78	4.77	18.4	68.1
[6]	2.75	14.2	11.7	37.3	67
[7]	-5.3	-6.22	3.24	12.3	67.8
[8]	-11.8	-3.21	15.2	49.5	66
[9]	4.93	11.4	9.18	31.7	55.4
[10]	2.96	3.52	7.55	26.5	62.3
[11]	-9.22	7.53	-13.9	16.4	24.5
[12]	-7.98	3.28	-0.52	18.1	13
[13]	-8.05	-2.56	3.22	27.2	24.8
[14]	-5.61	1.81	2.65	24.4	23.8

Settings	drug sensitivity score
[15]	4.91
[16]	8.48
[17]	0.09
[18]	7.92
[19]	6.5
[20]	8.91
[21]	5.77
[22]	10.9
[23]	7.2
[24]	6.33
[25]	2.65
[26]	2.18
[27]	4.93
[28]	4.17

COc1ccc(C2=N[C@@H](c3ccc(Cl)cc3)[C@@H](c3ccc(Cl)cc3)N2C(=O)N2CCNC(=O)C2)c(OC(C)C)c1 [Nutlin-3] (max concentration tested 10000 nM)
percent inhibition of viability [%]
Settings	1 nM	10 nM	100 nM	1000 nM	10000 nM
[1]	-4.98	0.87	1.74	19.4	99.2
[2]	0.15	0.54	7.5	29	99.3
[3]	-5.54	-4.03	-1.5	-1.01	21.2
[4]	-3.27	-5.08	7.55	34.8	60.6
[5]	-6.71	-9.4	-3.85	-2.52	12.2
[6]	-20.5	0.59	-14.7	13	28.5
[7]	-2.06	-4.19	0.64	37.4	83.9
[8]	3.59	-3.19	6.18	9.61	42.5
[9]	-8.93	-12	-4.65	42.5	85.7
[10]	-1.48	-2.54	1.47	19.9	69.5
[11]	-5.38	6.43	9.32	29	96.8
[12]	-5.64	8.67	11.7	69	93.8
[13]	-11.5	9.9	0.22	13.9	90
[14]	-6.84	5.45	0.48	4.02	75.6

Settings	drug sensitivity score
[15]	8.63
[16]	9.5
[17]	0.61
[18]	7.56
[19]	0.02
[20]	2.8
[21]	9.5
[22]	3.64
[23]	10.1
[24]	6.81
[25]	9.16
[26]	14.5
[27]	7.31
[28]	4.75
